{"source": "patent US20100310660A1", "about": "“DRY POWDER MICROPARTICLES FOR PULMONARY DELIVERY” (TAIPEI MEDICAL UNIVERSITY, priority 2009, published 2010)", "tested_on": "A549 cells", "test": "Photocytotoxicity (MTT assay after LED irradiation)", "assay_type": "cell-based, Human", "conditions": "0.5 μg/ml Hp, 3 hours", "procedure": "Human lung adenocarcinoma A549 cells were kept in a humidified incubator containing 5% CO2 at 37° C. A549 cells were cultured in DMEM supplemented with 10% fetal bovine serum (FBS) and 1% penicillin-streptomycin (GIBCO BRL, USA). The cells were routinely grown in tissue culture flask and harvested with a solution of 1% trypsin while in the logarithmic phase of growth. The cells were kept in the above culture conditions for experiments.\nA549 cells were grown in 96-well plates at a density of 8×10^3 cells/well for 24 hours. […] The cells were incubated for 3 hours (protection from light) and washed once with 100 μl PBS/well. The no phenol red medium (100 μl/well) was added to the cells and then irradiated with various doses of light using LED (635±5 nm, 60 mW/cm^2) light source. After light irradiation, the original medium was removed and DMEM containing 10% FBS was added to each well. Twenty-four hours later, cell survival was measured using an MTT [3(4,5-dimethyl-thiazoyl-2-yl) 2,5 diphenyl-tetrazolium bromide] assay. The MTT assay was based on the activity of mitochondria dehydrogenases wherein a water-soluble tetrazolium salt was reduced to a purple insoluble formazan product. The amount of MTT formazan product was analyzed with spectrophotometer at the absorbance of 570 nm.", "note": "Structures can show the parent of a compound that is named as a salt.", "data": [{"smiles": "CC1=C(CCC(=O)O)c2cc3[nH]c(cc4nc(cc5[nH]c(cc1n2)c(C)c5C(C)O)C(C)=C4C(C)O)c(C)c3CCC(=O)O", "note": "(centres unmarked) [Hp, Hematoporphyrin Dihydrochloride]", "values": [{"measurement": "cells alive", "setting": "irradiation at 4 J/cm2", "result": 89, "unit": "%"}, {"measurement": "cells alive", "setting": "irradiation at 12 J/cm2", "result": 75, "unit": "%"}]}]}
